By IC50 is commonly meant the point on the concentration scale where inhibition reaches its midpoint.

Where two headings read alike, the source gives them in different places.

This passage reports IC50 results from patent US20190151312A1, “HEPARAN SULFATE BIOSYNTHESIS INHIBITORS FOR THE TREATMENT OF DISEASES” (BioMarin Pharmaceutical Inc., priority 2014, published 2019).

The test relates to GM01896 cells (MPS II dermal fibroblasts). The test can be described thus: Assay 1: MPS cellular assay, MPS II (heparan sulfate disaccharide biomarkers by LC-MS). In kind it is cell-based, human. Particulars: Assay 1 for MPS II, heparan sulfate disaccharide biomarkers (I2a4, I2a6, I2S0 and/or I2S6), read-out: IC50 Range. The protocol:
Dermal fibroblasts from humans with an MPS disorder and from healthy donors are grown. Cells are expanded and kept in culture for analysis. Human foreskin fibroblasts can be obtained from the American Type Culture Collection (CRL-1634). Human dermal fibroblasts derived from biopsies of individuals are purchased from Coriell Institute: clinically healthy individuals, GM00408, GM00409, GM00200 (clinically unaffected sibling of an individual with metachromatic leukodystrophy), GM05659, GM08398, and GM15871 (clinically unaffected sibling of an individual with unclassified Ehlers-Danlos syndrome); heterozygous MPS I carriers, GM01392, GM01393 and GM0003; homozygous individuals affected with MPS I, GM06214, GM11495, GM00034, GM01391 and GM01256; individuals with MPS II, GM01896, GM03181, GM00615 and GM00298; individuals with MPS IIIA, GM00879, GM00643, GM00934, GM06110 and GM00629; MPS IIIB, GM01426; MPS IIIC, GM05157; MPS IIID, GM05093; and MPS VII, GM00121. All cells are grown in DMEM containing 50 U ml-1 penicillin, […] ml-1 streptomycin, 2 mM glutamine and 10% FBS. Cells are seeded on 15-cm-diameter tissue culture dishes, grown to confluence and maintained in culture for analysis. Sulfamidase activity in cell extracts is measured with 4-methylumbelliferyl-α-D-N-sulfoglucosaminide according the vendors instructions substituting Tris-acetate buffer (pH 6.5; Moscerdam).
Cells are treated with a compound of the invention at a concentration at or below 30 μM for 4 to 21 days. Cell monolayers are washed with phosphate buffered saline and detached by treatment with GIBCO trypsin-EDTA solution (Invitrogen). After centrifugation, the supernatant is removed and the cells are lysed in 0.5 mL of 0.1 N sodium hydroxide. The amount of protein is determined by bicinchoninic acid (BCA assay, Thermo Scientific). GAGs are isolated by anion exchange chromatography and digested with glycosaminoglycan lyases (heparinases I, II, and III, IBEX).
Enzymatically depolymerized GAG preparations are differentially mass labeled by reductive amination with [^12C6]aniline. Briefly, heparan sulfate disaccharides (1-10 pmol) are dried down in a centrifugal evaporator and reacted with [^12C6]aniline or [^13C6]aniline (15 μL, 165 μmol) and 15 μL of 1 M NaCNBH3 (Sigma-Aldrich) freshly prepared in dimethylsulfoxide/acetic acid (7:3, v/v) is added to each sample. Reactions are carried out at 37° C. for 16 h and then dried in a centrifugal evaporator. Unsubstituted amines are reacted with propionic anhydride (Sigma-Aldrich). Dried samples are reconstituted in 20 μL of 50% methanol, and 3 μL of propionic anhydride (Sigma-Aldrich, 23.3 μmol) is added. Reactions are carried out at ˜23° C. for 2 h. Acylated disaccharides are subsequently aniline tagged as described above. Each sample is mixed with commercially available standard unsaturated disaccharides (Seikagaku), standard N-sulfoglucosamine, glucosamine-6-sulfate, N-acetylgalactosamine-4-sulfate and N-acetylgalactosamine-6-sulfate (Sigma-Aldrich), and/or synthesized α-L-idopyranosyluronate-(1,4)-2-N-acetyl-2-deoxy-α/β-D-glucopyranoside (I0S0). All standards are tagged with [^13C6]aniline (Sigma-Aldrich). Samples are then analyzed by LC-MS using an LTQ Orbitrap Discovery electrospray ionization mass spectrometer (Thermo Scientific) equipped with quaternary HPLC pump (Finnigan Surveyor MS pump) and a reverse-phase capillary column as described in J. Biol. Chem. 2008, 283(48), 33674.
MPS II: Assay 1, as described above, was used to determine activity for MPS II using GM01896 cells. […] Extracted ion chromatograms were obtained. Cell viability was monitored using alamar blue or ATP quantification. IC50's were calculated using curve fitting within the ChemInnovation CBIS database system.

`CCn1ccc2ccc(Nc3cc(-c4ccc5cnn(C)c5c4)nc(N4CCOCC4)n3)cc21` [(1-ethylindol-6-yl)[6-(1-methyl(1H-indazol-6-yl))-2-morpholin-4-ylpyrimidin-4-yl]amine]: the IC50 (Homo sapiens, Fibroblast) was 1000 to 5000 nM.

For the compound `Cn1nc(CCN2CCOCC2)c2ccc(-c3cc(Nc4ccc(-c5ncc[nH]5)cc4)nc(N4CCOCC4)n3)cc21` [(4-imidazol-2-ylphenyl){6-[1-methyl-3-(2-morpholin-4-ylethyl)(1H-indazol-6-yl)]-2-morpholin-4-ylpyrimidin-4-yl}amine], the IC50 (Homo sapiens, Fibroblast) lay within 1000 to 5000 nM.

Consider `Clc1ccc(Nc2cc(-c3ccc4ncn(C5CC5)c4c3)nc(N3CCOCC3)n2)cc1` [(4-chlorophenyl)[6-(1-cyclopropylbenzimidazol-6-yl)-2-morpholin-4-ylpyrimidin-4-yl]amine], for which the IC50 (Homo sapiens, Fibroblast) was 500 to 1000 nM.

Regarding `COCCn1ncc2ccc(-c3cc(Nc4ccc(Cl)cc4)nc(N4CCOCC4)n3)cc21` [(4-chlorophenyl){6-[1-(2-methoxyethyl)(1H-indazol-6-yl)]-2-morpholin-4-ylpyrimidin-4-yl}amine], the IC50 (Homo sapiens, Fibroblast) lay in the range of 1000 to 5000 nM.

`Cn1cnc2ccc(-c3cc(Nc4ccc(C#N)cc4)nc(N4CCOCC4)n3)cc21` [4-{[6-(1-methylbenzimidazol-6-yl)-2-morpholin-4-ylpyrimidin-4-yl]amino}benzenecarbonitrile]: the IC50 (Homo sapiens, Fibroblast) lay within 1000 to 5000 nM.

On to `Cn1ccc2ccc(Nc3cc(-c4ccc5cnn(C)c5c4)nc(N4CCOCC4)n3)cc21` [[6-(1-methyl(1H-indazol-6-yl))-2-morpholin-4-ylpyrimidin-4-yl](1-methylindol-6-yl)amine], for which the IC50 (Homo sapiens, Fibroblast) was less than 500 nM.

As to `Cc1nnc(-c2ccc(Nc3cc(-c4ccc5c(CCN6CCOCC6)nn(C)c5c4)nc(N4CCOCC4)n3)cc2)[nH]1` [[4-(5-methyl(4H-1,2,4-triazol-3-yl))phenyl]{6-[1-methyl-3-(2-morpholin-4-ylethyl)(1H-indazol-6-yl)]-2-morpholin-4-ylpyrimidin-4-yl}amine], the IC50 (Homo sapiens, Fibroblast) was less than 500 nM.

Regarding `Cc1nn(C)c2cc(-c3cc(Nc4ccc(-c5nnc(C6CC6)[nH]5)cc4)nc(N4CCOCC4)n3)ccc12` [[6-(1,3-dimethyl(1H-indazol-6-yl))-2-morpholin-4-ylpyrimidin-4-yl][4-(5-cyclopropyl(4H-1,2,4-triazol-3-yl))phenyl]amine], the IC50 (Homo sapiens, Fibroblast) was less than 500 nM.

Turning to `COc1cc(Nc2cc(-c3ccc4ncn(C)c4c3)nc(N3CCOCC3)n2)ccn1` [(2-methoxy(4-pyridyl))[6-(1-methylbenzimidazol-6-yl)-2-morpholin-4-ylpyrimidin-4-yl]amine], the IC50 (Homo sapiens, Fibroblast) is 500 to 1000 nM.

Regarding `Cc1nn(C)c2cc(-c3cc(Nc4ccc5c(C)c(C)n(C)c5c4)nc(N4CCOCC4)n3)ccc12` [[6-(1,3-dimethyl(1H-indazol-6-yl))-2-morpholin-4-ylpyrimidin-4-yl](1,2,3-trimethylindol-6-yl)amine], the IC50 (Homo sapiens, Fibroblast) is 1000 to 5000 nM.

As for `Cc1nn(CCCN2CCCC2)c2cc(-c3cc(Nc4ccc(Cl)cc4)nc(N4CCOCC4)n3)ccc12` [(4-chlorophenyl){6-[3-methyl-1-(3-pyrrolidinylpropyl)(1H-indazol-6-yl)]-2-morpholin-4-ylpyrimidin-4-yl}amine], where the note is “Homo sapiens, Fibroblast”, the IC50 fell in the range of 500 to 1000 nM.

As to `Cc1nn(C)c2cc(-c3cc(Nc4ccc(-c5nnc(C(C)C)[nH]5)cc4)nc(N4CCOCC4)n3)ccc12` [[6-(1,3-dimethyl(1H-indazol-6-yl))-2-morpholin-4-ylpyrimidin-4-yl]{4-[5-(methylethyl)(4H-1,2,4-triazol-3-yl)]phenyl}amine], the IC50 (Homo sapiens, Fibroblast) was less than 500 nM.

Consider `COCCn1cnc2ccc(-c3cc(Nc4ccc(Cl)cc4)nc(N4CCOCC4)n3)cc21` [(4-chlorophenyl){6-[1-(2-methoxyethyl)benzimidazol-6-yl]-2-morpholin-4-ylpyrimidin-4-yl}amine], for which the IC50 (Homo sapiens, Fibroblast) lay within 500 to 1000 nM.

Regarding `Cc1ccc(Nc2cc(-c3ccc4c(CCN5CCOCC5)nn(C)c4c3)nc(N3CCOCC3)n2)cc1` [{6-[1-methyl-3-(2-morpholin-4-ylethyl)(1H-indazol-6-yl)]-2-morpholin-4-ylpyrimidin-4-yl}(4-methylphenyl)amine], the IC50 (Homo sapiens, Fibroblast) fell in the range of 500 to 1000 nM.

On to `CNC(=O)c1ccc(Nc2cc(-c3ccc4c(c3)ncn4CCN(C)C)nc(N3CCOCC3)n2)cc1` [{4-[(6-{1-[2-(dimethylamino)ethyl]benzimidazol-5-yl}-2-morpholin-4-ylpyrimidin-4-yl)amino]phenyl}-N-methylcarboxamide], for which the IC50 (Homo sapiens, Fibroblast) was in the range of 1000 to 5000 nM.

In the case of `COCCn1cnc2ccc(-c3cc(Nc4ccc(C(=O)O)cc4)nc(N4CCOCC4)n3)cc21` [4-({6-[1-(2-methoxyethyl)benzimidazol-6-yl]-2-morpholin-4-ylpyrimidin-4-yl}amino)benzoic acid], the IC50 (Homo sapiens, Fibroblast) lay within 1000 to 5000 nM.

As for “[6-(1-methyl(1H-indazol-6-yl))-2-morpholin-4-ylpyrimidin-4-yl][4-(3-methylpyrazolyl)phenyl]amine”, the IC50 is less than 500 nM.

With `Cc1nn(C)c2cc(-c3cc(Nc4ccc(-n5nccn5)cc4)nc(N4CCOCC4)n3)ccc12` [[6-(1,3-dimethyl(1H-indazol-6-yl))-2-morpholin-4-ylpyrimidin-4-yl](4-(1,2,3-triazol-2-yl)phenyl)amine], the IC50 (Homo sapiens, Fibroblast) was less than 500 nM.

On to `Cc1nn(C)c2cc(-c3cc(Nc4ccc(-c5ccn[nH]5)cc4)nc(N4CCOCC4)n3)ccc12` [[6-(1,3-dimethyl(1H-indazol-6-yl))-2-morpholin-4-ylpyrimidin-4-yl](4-pyrazol-5-ylphenyl)amine], for which the IC50 (Homo sapiens, Fibroblast) is less than 500 nM.

As for `Cc1nn(C)c2cc(-c3cc(Nc4ccc(-c5cccn5C)cc4)nc(N4CCOCC4)n3)ccc12` [[6-(1,3-dimethyl(1H-indazol-6-yl))-2-morpholin-4-ylpyrimidin-4-yl][4-(1-methylpyrrol-2-yl)phenyl]amine], the IC50 (Homo sapiens, Fibroblast) was in the range of 500 to 1000 nM.

With `Cc1nn(C)c2cc(-c3cc(Nc4ccc(-c5nccn5C)cc4)nc(N4CCOCC4)n3)ccc12` [[6-(1,3-dimethyl(1H-indazol-6-yl))-2-morpholin-4-ylpyrimidin-4-yl][4-(1-methylimidazol-2-yl)phenyl]amine], the IC50 (Homo sapiens, Fibroblast) is less than 500 nM.

Regarding `Cc1nn(C)c2cc(-c3cc(Nc4ccc5ncn(C)c5c4)nc(N4CCOCC4)n3)ccc12` [[6-(1,3-dimethyl(1H-indazol-6-yl))-2-morpholin-4-ylpyrimidin-4-yl](1-methylbenzimidazol-6-yl)amine], the IC50 (Homo sapiens, Fibroblast) lay within 1000 to 5000 nM.

In the case of `CN(C)C(=O)c1ccc(Nc2cc(-c3ccc4cnn(C)c4c3)nc(N3CCOCC3)n2)cc1` [N,N-dimethyl(4-{[6-(1-methyl(1H-indazol-6-yl))-2-morphlin-4-ylpyrimidin-4-yl]amino}phenyl)carboxamide], the IC50 was 500 to 1000 nM.

In the case of `Cn1ccc2ccc(Nc3cc(-c4ccc5nc(CCN6CCOCC6)n(CC6CC6)c5c4)nc(N4CCOCC4)n3)cc21` [{6-[1-(cyclopropylmethyl)-2-(2-morpholin-4-ylethyl)benzimidazol-6-yl]-2-morpholin-4-ylpyrimidin-4-yl}(1-methylindol-6-yl)amine], where the note is “Homo sapiens, Fibroblast”, the IC50 is less than 500 nM.

For the compound `Cc1nc2ccc(-c3cc(Nc4ccc(Cl)cc4)nc(N4CCOCC4)n3)cc2n1C1COC1` [(4-chlorophenyl)[6-(2-methyl-1-oxetan-3-ylbenzimidazol-6-yl)-2-morpholin-4-ylpyrimidin-4-yl]amine], the IC50 (Homo sapiens, Fibroblast) is less than 500 nM.

Consider `Cn1ncc2ccc(-c3cc(Nc4ccccc4)nc(N4CCOCC4)n3)cc21` [6-(1-methyl-1H-indazol-6-yl)-2-morpholino-N-phenylpyrimidin-4-amine], for which the IC50 (Homo sapiens, Fibroblast) fell in the range of 1000 to 5000 nM.
